Results: patent publication US10968186B2, “Ascochlorin derivative and use thereof as AMPK activator” (priority 2016, dated 2021)
≈ marks a conversion by molar mass, not a printed value. Values belong to the molecule of their own block, whether it stands above or below them.

Tests used:
[1] = Stability against human liver microsomes; format: in vitro ADME; details: 2 μM compound
Method: (§1) Determination of Stability Against Mouse and Human Mirosomes
(§2) Pooled human liver microsomes (Cat. 452161; Lot. 23418) were purchased from Corning and pooled male mouse liver microsomes (Cat. M1000; Lot. 1210302) were purchased from Xenotech. Microsomes were stored at −80° C. prior to use. 40 μL of ultra-pure H2O was used instead of NADPH solution in the negative control. The negative control was used to exclude the misleading factor that was resulted from instability of chemical itself. Samples with NADPH were prepared in duplicate. Negative controls were prepared in singlet.
(§3) The reaction was started with the addition of 4 μL of 200 μM compound solution to each master solution to get the final concentration of 2 μM. Verapamil was used as positive control in the assay. Aliquots of 50 μL were taken from the reaction solution at 0, 15, 30, 45 and 60 min. The reaction was stopped by addition of 4 volumes of cold acetonitrile with IS (200 nM imipramine, 200 nM labetalol and 2 μM ketoprofen). Samples were centrifuged at 3,220 g for 40 minutes. Aliquot of […] of the supernatant was mixed with 90 μL of ultra-pure H2O and then was used for LC-MS/MS analysis. Results are shown in Table 3 by indicating remaining % of the test compound after 60 minutes incubation with liver microsomes from human and mouse in the presence of NADPH.

U87-MG = assay: Anti-proliferative activity, CellTiterGlo assay, U87-MG; format: cell-based; details: Homo sapiens, U-87 MG, 96 hrs incubation, read-out: Antiproliferative activities IC50, U87-MG
Method: (§4) The anti-proliferative activities of the compounds against 6 human cancer cell lines were determined by CellTiterGlo assay kit. All cells were obtained from ATCC and cultured as recommended by the vendor. Cells were assayed in exponential growth phase. Sample solution was prepared by 3-fold serial dilution from 30 mM stock for 10 doses in DMSO. Antiproliferative activities were measured by CellTiterGlo assay kit according to the protocol after cells were incubated for 96 hrs in a 37° C., 5% CO2 incubator.
(§5) On the 4th day of incubation, i) 15 μl reagent (CelltiterGlo assay kit) was added per well and plate was shaken (avoiding light) for 2 mins on a plate shaker, ii) the plate was kept (avoiding light) in room temperature for 30 min, and iii) the luminescence value was recorded by Multiplate reader.

MDA-MB-231 = assay: Anti-proliferative activity, CellTiterGlo assay, MDA-MB-231; format: cell-based; details: Homo sapiens; MDA-MB-231, 96 hrs incubation; read-out: Antiproliferative activities IC50, MDA-MB-231
Method: as §4, §5

LNCaP = assay: Anti-proliferative activity, CellTiterGlo assay, LNCaP; format: cell-based; details: Homo sapiens, 96 hrs incubation, read-out: Antiproliferative activities IC50, LNCaP
Method: as §4, §5

A549 = assay: Anti-proliferative activity, CellTiterGlo assay, A549; format: cell-based; details: Homo sapiens; A549, 96 hrs incubation; read-out: Antiproliferative activities IC50, A549
Method: as §4, §5

HT29 = assay: Anti-proliferative activity, CellTiterGlo assay, HT29; format: cell-based; details: Homo sapiens, HT-29; HT29, 96 hrs incubation; read-out: Antiproliferative activities IC50, HT29
Method: as §4, §5

[2] = Stability against mouse liver microsomes; format: in vitro ADME; details: mouse LM, 2 μM compound, 60 min, NADPH
Method: as §1, §2, §3

BxPC-3 = assay: Anti-proliferative activity, CellTiterGlo assay, BxPC-3; format: cell-based; details: Homo sapiens; BxPC-3, 96 hrs incubation; read-out: Antiproliferative activities IC50, BxPC-3
Method: as §4, §5

[3] = test system: Hep3B human liver cancer xenograft; assay: Antitumor activity in Hep3B human liver cancer xenograft model; format: in vivo, BALB/c nude mice; details: po 200 mg/kg once daily 5 days then 100 mg/kg 10 days; alone or in combination of sorafenib (80 mg/kg)
Method: Antitumor Activity of Compound 5 (po, qd×14) in Hep3B Human Liver Cancer Xenograft Model in BALB/c Nude Mice: Single Agent and Combination With Sorafenib
Each mouse was inoculated subcutaneously on the right flank with Hep3B tumor cells (5×106) in 0.1 ml of MEM-Matrigel mixture (1:1 ratio) for tumor development. The treatment started when the mean tumor size reached approximately 137 mm^3. Mice were then randomized into groups.
Compound 5 was dissolved in the vehicle (95% v/v PEG400+5% Tween 80) and orally administered to the tumor-bearing mice with 200 mg/kg, once daily for the first 5 days, followed by treatment with 100 mg/kg for 10 days.

[4] = Solubility in pH4.0 and pH7.4 phosphate buffer solution; format: physicochemical; details: 2 hr incubation, 25° C.
Method: 1) Preparation of Stock Solutions
Diclofenac was used as positive control in the assay.
2) Procedures for Solubility Determination
This study was performed in duplicate. […] The filtered samples were diluted with methanol.
3) Samples Analyzed by LC-MS/MS

[5] = Stability in acidic pH phosphate buffer solution (hydrolysis to MAC); format: physicochemical; details: room temperature
Source text: Therefore, the Schiff base derivatives of MAC have the same problem in the metabolic stability as the parent compound, MAC.

melting point: 42 to 43 °C
SMILES: COc1c(Cl)c(C)c(C=O)c(O)c1C/C=C(C)/C=C/[C@@]1(C)[C@H](C)CC[C@](C)(O)[C@@H]1C [Compound 1, 3-chloro-6-hydroxy-5-[(2E,4E)-5-[(1R,2R,3S,6R)-3-hydroxy-1,2,3,6-tetramethylcyclohexyl]-3-methylpenta-2,4-dien-1-yl]-4-methoxy-2-methylbenzaldehyde]

Liver microsome stability remaining % after 60 min incubation with NADPH, human LM [1]: 86%
IC50 (U87-MG): 5500 nM
IC50 (MDA-MB-231): 2600 nM
IC50 (LNCaP): 1800 nM
IC50 (A549): 2700 nM
IC50 (HT29): 2800 nM
Liver microsome stability remaining % after 60 min incubation with NADPH, mouse LM [2]: 88%
IC50 (BxPC-3): 3200 nM
SMILES: CC(/C=C/[C@@]1(C)[C@H](C)CC/C(=N\O)[C@@H]1C)=C\Cc1c(O)c(C=O)c(C)c(Cl)c1OCF [Compound 5, 3-chloro-4-(fluoromethoxy)-6-hydroxy-5-[(2E,4E)-5-[(1R,2R,3E,6R)-3-(hydroxyimino)-1,2,6-trimethylcyclohexyl]-3-methylpenta-2,4-dien-1-yl]-2-methylbenzaldehyde]
effect to reduce the proliferation of the liver cancer cells (tumor size) [3]: significant effect

Solubility, pH 4.0 PBS ([4]; pH 4.0 phosphate buffer solution): converted to MAC
solubility at 2 h ([4]; pH 7.4 phosphate buffer solution, read-out: Solubility, pH 7.4 PBS): 0.02 µM (≈ 9.5 ng/mL)
hydrolysis to MAC at pH 4.0 phosphate buffer solution [5]: almost instantly hydrolyzed to MAC
SMILES: COc1c(Cl)c(C)c(C=NCC(N)=O)c(O)c1C/C=C(C)/C=C/[C@@]1(C)[C@H](C)CCC(=O)[C@@H]1C [compound #13 in WO2004/074236, reference compound]
